Here are results for twelve molecules from DBAASP.

Values after ≈ are worked out from the molar mass of the structure shown. A value given as a limit tells only on which side of the number the result lay.

Test systems include Escherichia coli; Staphylococcus aureus; Bacillus subtilis.
What all share (test): ≥ marks a high value that may be exact or a test limit, other limits are often not marked, values filed in µg/mL are converted to µM
Assay [1] concerns Bacillus subtilis KCTC 3068.
Assay [2] has as its system Salmonella typhimurium KCTC 1926.
The test system of assay [3] is Staphylococcus epidermidis KCTC 1917.
The subject of assay [4] is Pseudomonas aeruginosa KCTC 1637.
In assay [5] the test system is Escherichia coli KCTC 1682.
The subject of assay [6] is Staphylococcus aureus KCTC 1621.
For assay [7], the system named is Acinetobacter baumannii ATCC 19606.

As for `CC[C@H](C)[C@H](NC(=O)[C@H](CC(C)C)NC(=O)[C@H](C)NC(=O)[C@@H]1CCCN1C(=O)[C@H](CC(C)C)NC(=O)CN)C(=O)N[C@@H](CO)C(=O)N[C@@H](Cc1c[nH]c2ccccc12)C(=O)N[C@H](C(=O)N[C@@H](CCCCN)C(=O)N[C@@H](CCCN=C(N)N)C(=O)N[C@@H](CCCCN)C(=O)N[C@@H](CCCN=C(N)N)C(N)=O)[C@@H](C)CC` [GLPALISWIKRKR], the MIC – broadly, the lowest concentration found to suppress growth – against Escherichia coli was determined as 27.1 µM (≈ 41.7 µg/mL); against Staphylococcus aureus, 0.845 µM (≈ 1.3 µg/mL); in the assay on Bacillus subtilis, 0.423 µM (≈ 0.65 µg/mL).
As for `CC[C@H](C)[C@H](NC(=O)[C@H](CCCN=C(N)N)NC(=O)[C@H](CCCN=C(N)N)NC(=O)[C@H](CC(C)C)NC(=O)[C@@H](N)CCCN=C(N)N)C(=O)N[C@@H](Cc1c[nH]c2ccccc12)C(=O)N[C@@H](Cc1c[nH]c2ccccc12)C(=O)N[C@H](C(=O)N[C@@H](CCCN=C(N)N)C(=O)N[C@H](C(=O)N[C@@H](CCCN=C(N)N)C(=O)N[C@@H](CCCN=C(N)N)C(N)=O)C(C)C)[C@@H](C)CC` [RLRRIWWIRVRR], the MIC in assay [1] stood at 7.08 µM (≈ 12.5 µg/mL); in [2], 1.77 µM (≈ 3.13 µg/mL); in assay [3], 3.54 µM (≈ 6.25 µg/mL); in assay [4], 3.54 µM (≈ 6.25 µg/mL); in assay [5], 7.08 µM (≈ 12.5 µg/mL); in [6], 3.54 µM (≈ 6.25 µg/mL).
`CC(C)C[C@H](NC(=O)[C@H](CCCCN)NC(=O)[C@H](CCCCN)NC(=O)[C@H](Cc1c[nH]c2ccccc12)NC(=O)[C@H](CC(C)C)NC(=O)[C@H](CCCCN)NC(=O)[C@H](CCCCN)NC(=O)[C@H](Cc1c[nH]c2ccccc12)NC(=O)[C@H](CCCCN)NC(=O)[C@H](CCCCN)NC(=O)[C@H](CCCN=C(N)N)NC(=O)[C@H](Cc1c[nH]c2ccccc12)NC(=O)[C@H](CCCN=C(N)N)NC(=O)[C@H](CCCCN)NC(=O)[C@H](Cc1c[nH]c2ccccc12)NC(=O)[C@H](CCCN=C(N)N)NC(=O)CN)C(=O)N[C@@H](CO)C(N)=O` [GRWKRWRKKWKKLWKKLS]: the minimum inhibitory concentration (MIC) in assay [1] stood at 2 µM (≈ 5 µg/mL); in [2], 2 µM (≈ 5 µg/mL); in [3], 8 µM (≈ 20 µg/mL); in [4], 4 µM (≈ 9.99 µg/mL); in assay [5], 4 µM (≈ 9.99 µg/mL); in [6], 4 µM (≈ 9.99 µg/mL).
`CC[C@H](C)[C@H](NC(=O)[C@H](CCCN=C(N)N)NC(=O)[C@H](CCCN=C(N)N)NC(=O)[C@@H](NC(=O)[C@@H](NC(=O)[C@H](CCCN=C(N)N)NC(=O)[C@H](CCCCN)NC(=O)[C@@H](N)Cc1c[nH]c2ccccc12)[C@@H](C)CC)C(C)C)C(=O)N[C@@H](Cc1c[nH]c2ccccc12)C(=O)N[C@@H](CCCN=C(N)N)C(=O)N[C@@H](Cc1c[nH]c2ccccc12)C(=O)N[C@@H](CC(C)C)C(=O)N[C@@H](CCCN=C(N)N)C(N)=O` [WKRIVRRIWRWLR]: the MIC turned out to be 2 µM (≈ 3.85 µg/mL) in assay [1]; 4 µM (≈ 7.69 µg/mL) in assay [2]; 8 µM (≈ 15.4 µg/mL) in assay [3]; 16 µM (≈ 30.8 µg/mL) in [4]; 8 µM (≈ 15.4 µg/mL) in assay [5]; 2 µM (≈ 3.85 µg/mL) in assay [6].
For the molecule `CC[C@H](C)[C@H](NC(=O)[C@@H]1CCCN1C(=O)[C@H](CC(C)C)NC(=O)[C@@H](N)Cc1ccccc1)C(=O)N[C@@H](C)C(=O)NCC(=O)N[C@@H](CCCCN)C(=O)N[C@@H](CC(C)C)C(=O)N[C@@H](CC(C)C)C(=O)N[C@@H](CO)C(=O)NCC(=O)N[C@@H](CC(C)C)C(=O)N[C@@H](CO)C(=O)NCC(=O)N[C@@H](CC(C)C)C(=O)N[C@@H](CC(C)C)C(=O)O` [FLPIAGKLLSGLSGLL], the minimal inhibitory concentration (MIC) in assay [7] is more than 62.5 µM.
Take `CC[C@H](C)[C@H](N)C(=O)N[C@@H](CC(C)C)C(=O)NCC(=O)N[C@@H](CCCCN)C(=O)N[C@H](C(=O)N[C@@H](CC(C)C)C(=O)N[C@@H](CCC(=O)O)C(=O)NCC(=O)N[C@H](C(=O)N[C@@H](CCCCN)C(=O)N[C@@H](CO)C(=O)N[C@@H](CC(C)C)C(=O)N[C@@H](Cc1ccccc1)C(N)=O)[C@@H](C)CC)[C@@H](C)CC` [ILGKILEGIKSLF]: the MIC was 16 µM (≈ 22.9 µg/mL) in assay [2]; not below 32 µM in assay [3]; 16 µM (≈ 22.9 µg/mL) in assay [4]; 16 µM (≈ 22.9 µg/mL) in assay [5]; 4 µM (≈ 5.72 µg/mL) in assay [6].
As for `CC[C@H](C)[C@H](NC(=O)[C@H](CC(C)C)NC(=O)[C@H](C)NC(=O)[C@H](CO)NC(=O)[C@H](CC(C)C)NC(=O)CN)C(=O)N[C@@H](CO)C(=O)N[C@@H](Cc1c[nH]c2ccccc12)C(=O)N[C@H](C(=O)N[C@@H](CCCCN)C(=O)N[C@@H](CCCN=C(N)N)C(=O)N[C@@H](CCCCN)C(=O)N[C@@H](CCCN=C(N)N)C(=O)N[C@@H](CCC(N)=O)C(=O)N[C@@H](CCC(N)=O)C(N)=O)[C@@H](C)CC` [GLSALISWIKRKRQQ], the minimum inhibitory concentration (MIC) against Escherichia coli is 3.5 µM (≈ 6.25 µg/mL); against Staphylococcus aureus, 1.74 µM (≈ 3.1 µg/mL); with Bacillus subtilis it was 0.897 µM (≈ 1.6 µg/mL).
For the molecule `CC[C@H](C)[C@H](NC(=O)[C@H](CCCN=C(N)N)NC(=O)CN)C(=O)N[C@@H](CCCCN)C(=O)N[C@@H](CCCN=C(N)N)C(=O)N[C@H](C(=O)N[C@@H](CCCN=C(N)N)C(=O)N[C@@H](CCCCN)C(=O)N[C@@H](CCCCN)C(=O)N[C@H](C(=O)N[C@@H](CCCCN)C(=O)N[C@@H](CCCCN)C(=O)N[C@@H](CC(C)C)C(=O)N[C@H](C(=O)N[C@@H](CCCCN)C(=O)N[C@@H](CCCCN)C(=O)N[C@@H](CC(C)C)C(=O)N[C@@H](CO)C(N)=O)[C@@H](C)CC)[C@@H](C)CC)[C@@H](C)CC` [GRIKRIRKKIKKLIKKLS], the minimum inhibitory concentration (MIC) in assay [1] worked out at 4 µM (≈ 8.82 µg/mL); in [2] it was 2 µM (≈ 4.41 µg/mL); in [3], 8 µM (≈ 17.6 µg/mL); in assay [4] it was 4 µM (≈ 8.82 µg/mL); in assay [5], 4 µM (≈ 8.82 µg/mL); in assay [6] it was 4 µM (≈ 8.82 µg/mL).
For the molecule `CC(C)C[C@H](NC(=O)[C@H](CC(C)C)NC(=O)[C@H](CCCCN)NC(=O)[C@H](CC(C)C)NC(=O)[C@H](CC(C)C)NC(=O)[C@H](CCCCN)NC(=O)[C@H](CCCCN)NC(=O)[C@H](CC(C)C)NC(=O)[C@H](CC(C)C)NC(=O)[C@H](CCCCN)NC(=O)[C@H](CCCCN)NC(=O)[C@H](Cc1c[nH]c2ccccc12)NC(=O)[C@@H](N)CCCCN)C(N)=O` [KWKKLLKKLLKLL], the minimal inhibitory concentration (MIC) in assay [1] is 4 µM (≈ 6.61 µg/mL); in assay [2], 8 µM (≈ 13.2 µg/mL); in [3], 4 µM (≈ 6.61 µg/mL); in assay [4], 8 µM (≈ 13.2 µg/mL); in assay [5], 8 µM (≈ 13.2 µg/mL); in [6], 8 µM (≈ 13.2 µg/mL).
On to `CC[C@H](C)[C@H](NC(=O)[C@H](CCCCN)NC(=O)[C@H](CCCCN)NC(=O)[C@H](CC(C)C)NC(=O)[C@@H](N)CCCCN)C(=O)N[C@@H](Cc1c[nH]c2ccccc12)C(=O)N[C@@H](Cc1c[nH]c2ccccc12)C(=O)N[C@H](C(=O)N[C@@H](CCCCN)C(=O)N[C@H](C(=O)N[C@@H](CCCCN)C(=O)N[C@@H](CCCCN)C(N)=O)C(C)C)[C@@H](C)CC` [KLKKIWWIKVKK], for which the MIC in [1] was 7.82 µM (≈ 12.5 µg/mL); in [2] it was 0.976 µM (≈ 1.56 µg/mL); in [3], 3.91 µM (≈ 6.25 µg/mL); in assay [4], 3.91 µM (≈ 6.25 µg/mL); in [5], 7.82 µM (≈ 12.5 µg/mL); in assay [6] it was 3.91 µM (≈ 6.25 µg/mL).
As to `CC[C@H](C)[C@H](N)C(=O)NCC(=O)N[C@@H](CCCCN)C(=O)N[C@@H](CCC(=O)O)C(=O)N[C@@H](Cc1ccccc1)C(=O)N[C@@H](CCCCN)C(=O)N[C@@H](CCCN=C(N)N)C(=O)N[C@H](C(=O)N[C@H](C(=O)N[C@@H](CCC(N)=O)C(=O)N[C@@H](CCCN=C(N)N)C(=O)N[C@H](C(=O)N[C@@H](CCCCN)C(=O)N[C@@H](CC(=O)O)C(=O)N[C@@H](Cc1ccccc1)C(=O)N[C@@H](CC(C)C)C(=O)N[C@@H](CCCN=C(N)N)C(=O)N[C@@H](CC(N)=O)C(=O)N[C@@H](CC(C)C)C(=O)O)[C@@H](C)CC)C(C)C)[C@@H](C)CC` [IGKEFKRIVQRIKDFLRNL], the minimal inhibitory concentration (MIC) was determined as 4 µM (≈ 9.5 µg/mL) in [1]; 8 µM (≈ 19 µg/mL) in [2]; 4 µM (≈ 9.5 µg/mL) in [3]; 16 µM (≈ 38 µg/mL) in assay [4]; 8 µM (≈ 19 µg/mL) in assay [5]; 4 µM (≈ 9.5 µg/mL) in [6].
As for `CC[C@H](C)[C@H](NC(=O)[C@H](Cc1c[nH]c2ccccc12)NC(=O)[C@H](CO)NC(=O)[C@H](CO)NC(=O)[C@H](CC(C)C)NC(=O)[C@H](C)NC(=O)[C@@H]1CCCN1C(=O)[C@H](CC(C)C)NC(=O)CN)C(=O)N[C@@H](CCCCN)C(=O)N[C@@H](CCCN=C(N)N)C(=O)N[C@@H](CCCCN)C(=O)N[C@@H](CCCN=C(N)N)C(=O)N[C@@H](CCC(N)=O)C(=O)N[C@@H](CCC(N)=O)C(N)=O` [GLPALSSWIKRKRQQ], the MIC worked out at 176 µM (≈ 311 µg/mL) with Escherichia coli, 8.26 µM (≈ 14.6 µg/mL) against Staphylococcus aureus and 22.1 µM (≈ 39 µg/mL) in the assay with Bacillus subtilis.
